For data set [1], the system named is interleukin (IL)-6 bioactivity. The conditions noted are these: cited from earlier work.
The subject of data set [2] is NF-kappaB. Particulars: pretreatment, rat VSMCs; cited from earlier work.
Data set [3] deals with isopentenyl diphosphate isomerase (Homo sapiens, UniProt Q13907). The conditions noted are these: cited from earlier work.
In another data set the target is GGPP synthase (Homo sapiens, UniProt O95749). Particulars: cited from earlier work.
Data set [4] addresses Recombinant human farnesyl diphosphate synthase (Homo sapiens, UniProt P14324). The conditions noted are these: cited from earlier work.
Data set [5] deals with human monocytic THP-1 cells. The conditions noted are these: 10 microM, 24 h pretreatment; cited from earlier work.
The test system of data set [6] is rat primary astrocytes, microglia, and macrophages. Particulars: cited from earlier work.
The subject of data set [7] is human T, B and myeloma tumor cells. Particulars: by promoting apoptosis; cited from earlier work.
Data set [8] has as its system patients with osteoarthritis. Kind of data set: Osteoarthritis patients in applicant's clinic. The data set is classed as in vivo, human.
Data set [9] relates to patients with Paget's bone disease. The conditions noted are these: end of study, cited from earlier work.
Data set [10] relates to diabetic patients with active Charcot neuroarthropathy. The conditions noted are these: cited from earlier work.
The next data set deals with Interleukin-6. Particulars: infusion; cited from earlier work.
For the next data set, the system named is osteoblasts. Particulars: cited from earlier work.
For data set [11] the following is noted: severe chronic renal failure or dialysis; cited from earlier work.
In data set [12] the test system is human epidermoid head and neck KB and lung H1355 cancer cells. Particulars: read-out: IC(50) growth inhibition; 48 h exposure; cited from earlier work.
In data set [13] the target is T1, IKK (Homo sapiens, UniProt O14920+O15111).
T1 construct: endogenous in cells; also 'human epithelial cells'
T1 sequence (O14920 whole entry): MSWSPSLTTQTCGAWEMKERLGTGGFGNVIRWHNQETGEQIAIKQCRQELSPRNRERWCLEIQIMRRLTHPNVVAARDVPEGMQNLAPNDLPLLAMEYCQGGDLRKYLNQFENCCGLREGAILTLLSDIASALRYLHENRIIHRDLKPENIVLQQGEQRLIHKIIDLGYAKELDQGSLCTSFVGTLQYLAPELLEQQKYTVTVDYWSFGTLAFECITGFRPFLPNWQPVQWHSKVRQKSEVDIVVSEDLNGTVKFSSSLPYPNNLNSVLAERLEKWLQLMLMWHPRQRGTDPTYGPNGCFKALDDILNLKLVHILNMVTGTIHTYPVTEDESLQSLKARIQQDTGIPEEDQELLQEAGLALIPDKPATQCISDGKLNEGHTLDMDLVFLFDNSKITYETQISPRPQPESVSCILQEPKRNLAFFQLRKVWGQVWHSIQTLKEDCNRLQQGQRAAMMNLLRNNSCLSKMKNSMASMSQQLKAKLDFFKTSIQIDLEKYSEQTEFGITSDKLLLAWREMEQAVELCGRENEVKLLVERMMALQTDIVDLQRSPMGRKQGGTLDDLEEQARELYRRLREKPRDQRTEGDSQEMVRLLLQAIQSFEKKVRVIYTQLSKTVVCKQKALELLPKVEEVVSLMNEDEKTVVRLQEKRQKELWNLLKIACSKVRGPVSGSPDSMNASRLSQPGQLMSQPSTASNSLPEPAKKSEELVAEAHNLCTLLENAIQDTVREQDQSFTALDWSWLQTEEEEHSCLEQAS
T1 sequence (O15111 whole entry): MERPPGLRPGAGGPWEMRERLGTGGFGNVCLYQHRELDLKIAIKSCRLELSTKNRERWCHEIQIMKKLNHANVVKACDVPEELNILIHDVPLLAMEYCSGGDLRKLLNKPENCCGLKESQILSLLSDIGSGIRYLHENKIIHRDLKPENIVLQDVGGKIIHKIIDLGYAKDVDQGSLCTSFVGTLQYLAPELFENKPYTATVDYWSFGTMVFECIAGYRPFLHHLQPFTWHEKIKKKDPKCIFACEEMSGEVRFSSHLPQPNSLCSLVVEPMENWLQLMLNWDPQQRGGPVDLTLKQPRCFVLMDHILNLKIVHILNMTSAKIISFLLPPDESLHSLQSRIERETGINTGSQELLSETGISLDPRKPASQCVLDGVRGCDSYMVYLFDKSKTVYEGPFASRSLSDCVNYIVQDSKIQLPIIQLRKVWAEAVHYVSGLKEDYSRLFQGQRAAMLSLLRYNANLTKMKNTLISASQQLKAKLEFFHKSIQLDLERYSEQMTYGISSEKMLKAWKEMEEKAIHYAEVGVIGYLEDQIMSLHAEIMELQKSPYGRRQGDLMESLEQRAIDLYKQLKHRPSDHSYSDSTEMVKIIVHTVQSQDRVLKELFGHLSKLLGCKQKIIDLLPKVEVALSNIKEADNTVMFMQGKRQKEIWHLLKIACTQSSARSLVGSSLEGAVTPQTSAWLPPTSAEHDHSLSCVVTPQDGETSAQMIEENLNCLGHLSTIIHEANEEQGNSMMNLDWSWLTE
T1 sequence (Q9Y6K9 whole entry partner): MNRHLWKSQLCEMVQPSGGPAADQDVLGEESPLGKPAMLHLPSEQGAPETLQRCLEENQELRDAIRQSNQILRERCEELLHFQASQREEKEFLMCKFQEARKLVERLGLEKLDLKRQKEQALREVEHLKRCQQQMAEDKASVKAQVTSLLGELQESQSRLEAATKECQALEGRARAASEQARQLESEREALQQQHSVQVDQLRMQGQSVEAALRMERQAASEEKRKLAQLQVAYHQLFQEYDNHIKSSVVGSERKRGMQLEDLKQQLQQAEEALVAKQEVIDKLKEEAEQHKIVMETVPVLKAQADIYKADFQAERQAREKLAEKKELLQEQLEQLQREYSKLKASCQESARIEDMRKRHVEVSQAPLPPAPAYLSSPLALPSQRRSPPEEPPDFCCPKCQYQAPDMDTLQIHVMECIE
The conditions noted are these: human epithelial cells; cited from earlier work.

For data set [14], the system named is IKK. The conditions noted are these: 50 to 200 μM, intestinal epithelial cell line; cited from earlier work.
The subject of the next data set is STAT-1. Particulars: cited from earlier work.
In the next data set the test system is Male Wistar rats. Particulars: cited from earlier work.
Data set [15] deals with murine neuron-like cells (N2a) and primary neurons with Swedish mutant APP. The conditions noted are these: cited from earlier work.
The subject of a further data set is Tg APPsw transgenic mice. The conditions noted are these: mouse, in vivo; cited from earlier work.
In data set [16] the test system is mouse mammary carcinoma 4T1 cells. The conditions noted are these: dose- and time-dependent; cited from earlier work.
In data set [17] the test system is MMTV-Her-2/neu NF639 cell. Particulars: cited from earlier work.
Data set [18] concerns human epidermoid carcinoma (A431) cells. Particulars: cited from earlier work.
For a further data set, the system named is JB6 cell. Particulars: cited from earlier work.
The test system of data set [19] is NF-kappaB. Particulars: cited from earlier work.
The test system of the next data set is neutrophil. The conditions noted are these: in vitro; cited from earlier work.

Chain of Recombinant human farnesyl diphosphate synthase (P14324 whole entry): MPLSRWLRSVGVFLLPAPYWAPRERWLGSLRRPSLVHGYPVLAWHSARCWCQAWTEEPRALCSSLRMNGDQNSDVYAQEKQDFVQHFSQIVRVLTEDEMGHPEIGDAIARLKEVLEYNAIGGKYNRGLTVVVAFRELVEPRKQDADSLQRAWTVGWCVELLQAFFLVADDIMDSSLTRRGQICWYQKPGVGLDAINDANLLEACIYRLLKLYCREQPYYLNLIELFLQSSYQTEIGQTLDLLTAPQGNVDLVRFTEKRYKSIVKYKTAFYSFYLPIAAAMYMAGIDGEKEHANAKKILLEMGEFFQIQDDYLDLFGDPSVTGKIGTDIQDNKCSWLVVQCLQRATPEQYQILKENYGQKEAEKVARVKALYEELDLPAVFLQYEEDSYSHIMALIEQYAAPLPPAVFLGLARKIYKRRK
Chain of isopentenyl diphosphate isomerase (Q13907 whole entry): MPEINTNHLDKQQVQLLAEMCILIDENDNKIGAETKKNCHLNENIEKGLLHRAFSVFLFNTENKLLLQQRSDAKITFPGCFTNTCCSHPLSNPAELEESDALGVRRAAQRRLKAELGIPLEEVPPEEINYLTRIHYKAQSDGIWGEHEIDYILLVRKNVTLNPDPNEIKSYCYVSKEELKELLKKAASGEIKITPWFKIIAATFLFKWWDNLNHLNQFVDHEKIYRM
Chain of GGPP synthase (O95749 whole entry, species assumed): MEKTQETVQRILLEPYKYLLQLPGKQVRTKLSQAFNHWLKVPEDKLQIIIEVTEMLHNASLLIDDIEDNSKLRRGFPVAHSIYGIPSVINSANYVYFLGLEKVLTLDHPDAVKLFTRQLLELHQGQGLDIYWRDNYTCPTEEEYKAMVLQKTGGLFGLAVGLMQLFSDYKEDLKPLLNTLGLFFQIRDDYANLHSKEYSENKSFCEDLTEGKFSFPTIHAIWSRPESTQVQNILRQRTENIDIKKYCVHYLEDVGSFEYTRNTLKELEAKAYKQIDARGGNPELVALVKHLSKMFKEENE

Turning to `O=c1c(-c2ccc(O[C@@H]3O[C@H](CO)[C@@H](O)[C@H](O)[C@H]3O)cc2)coc2cc(O)cc(O)c12` [Sophoricoside], the IC50 in data set [1] was 6.1 µM.
On to `Cc1ccc(S(=O)(=O)N[C@@H](Cc2ccccc2)C(=O)CCl)cc1` [TPCK], for which, in the data set with NF-kappaB [2], the “Sar1 Ang II-induced NF-kappaB activation and induction of endogenous IL-6 gene expression” value is recorded as “completely blocked”.
For `NCCCC(O)(P(=O)(O)O)P(=O)(O)O` [alendronate], the “inhibition of isopentenyl diphosphate isomerase” value in data set [3] is “did not inhibit”. Besides, the “inhibition of GGPP synthase” value on GGPP synthase is “did not inhibit”.
For the compound `O=P(O)(O)C(Cl)(Cl)P(=O)(O)O` [clodronate], the “inhibition of recombinant farnesyl diphosphate synthase” value in data set [4] is given as “not at all”.
Regarding `CC[C@H](C)C(=O)O[C@H]1C[C@@H](C)C=C2C=C[C@H](C)[C@H](CC[C@@H]3C[C@@H](O)CC(=O)O3)[C@H]21` [lovastatin], the “hydrogen peroxide (H2O2) generation” value in [5] is reported as “markedly suppressed”. Further, the “LPS-mediated activation of NF kappa B” value in data set [6] (astrocytes) is recorded as “Inhibition”. Further, the “LPS-induced expression of TNF-alpha, IL-1beta, and IL-6” value in [6] (rat primary astrocytes, microglia, macrophages) is recorded as “inhibited”. Also, in data set [6] (rat primary astrocytes), the “LPS and cytokine-mediated production of NO and expression of iNOS” value is reported as “inhibit”. Moreover, in [7], the “effect on human T, B and myeloma tumor cells” value is given as “cytotoxic effect”.
As to `NCCC(O)(P(=O)(O)O)P(=O)(O)O` [pamidronate], in data set [8], the “pain in patients with osteoarthritis (with and without osteoporosis)” value is recorded as “pain reduction”. Besides, the HDL-C increased in data set [9] (60 mg intravenous, three cycles every 3 months) is 10.3%. Moreover, the LDL-C decreased in data set [9] (60 mg intravenous, three cycles) is recorded as 5.5%. Also, in [9], the TC/HDL-C decreased is given as 12.5%; the “bone ALP and total ALP” value was “significantly fell”. Moreover, the “Urinary deoxypyridinoline (means+/−SEM)” value in data set [10] (single infusion 90 mg, 4 weeks) is on record as 4.4+/−0.4 nmol/mmol creatinine. Moreover, the bone-specific alkaline phosphatase in [10] (single infusion 90 mg, after 4 weeks) is reported as 14.1+/−1.2 u/l. Further, in data set [10] (vs placebo group), the symptoms entry is “improvement”. Besides, in the data set with Interleukin-6, the “mean serum levels of Interleukin-6” value is “significantly decreased”. In the data set with osteoblasts, the “production by osteoblasts of interleukin-6” value was “inhibit”. Also, the “adverse effect of large intravenous dosages” value in [11] was “marked hypocalcemia and/or hypophosphatemia”. Also, the IC50 in data set [12] is 25 µM.
Epigallocatechin-3-gallate [EGCG]: the “TNF-α-mediated IKK activation” value on IKK [13] was “inhibits”. The IKK activity entry in the data set with IKK [14] is “inhibited”. Also, the “INF-γ-induced STAT1 activation” value with STAT-1 (T84 epithelial and THP-1 monocytes/macrophages) is “significantly reduced”. Also, the “interferon-γ-induced STAT-1 activation” value in the data set with STAT-1 (carcinoma-derived cell lines of non-gut origin) is recorded as “blocked”. Further, in the data set with Male Wistar rats (10 mg/kg iv then 10 mg/kg/h, all time points), the “phosphorylation of c-Jun” value was “markedly attenuated”. In addition, in the data set with Male Wistar rats (10 mg/kg iv then 10 mg/kg/h), the “Plasma IL-6 and creatine phosphokinase levels” value is listed as “decreased”; the “myocardial damage and myeloperoxidase activity” value was “reduced”. In the data set with Male Wistar rats (rat, in vivo), the “reperfusion-induced activation of IKK, degradation of IκB-α, activation of NF-κB” value was “reduced”. Besides, the “reduction of Abeta generation” value in [15] is not above 54%. Also, the “beta-amyloid (Abeta) levels and plaques” value with Tg APPsw transgenic mice is reported as “decreased”. The “cell proliferation and apoptosis” value in data set [16] is reported as “inhibition of cell proliferation”. For the same compound, in [17], the “cell growth in culture and soft agar” value is “inhibited”. In addition, in [18] (10-80 microM, A431 cells and NHEK), the “NF-kappaB levels in cytoplasm and nucleus” value is listed as “lowering of NF-kappaB levels”. Also, the “cell growth of A431 cells” value in [18] (dose-dependent, not in NHEK) is reported as “inhibition of cell growth”. In the data set on JB6 cell, the “EGF- or TPA-induced JB6 cell transformation” value is listed as “inhibit” and the “activator protein-1 (AP-1) activation” value was “inhibited”. In addition, in the data set with NF-kappaB [19], the “NF-kappaB nuclear translocation and IL-6 secretion induced by UVB and UVA” value was “dramatically inhibited”. Further, the “chemokine induced neutrophil chemotaxis” value with neutrophil was “dramatically inhibit”.

Source of the values: US20060275294A1, “METHOD OF PREVENTION AND TREATMENT OF AGING, AGE-RELATED DISORDERS AND/OR AGE-RELATED MANIFESTATIONS INCLUDING ATHEROSCLEROSIS, PERIPHERAL VASCULAR DISEASE, CORONARY ARTERY DISEASE, OSTEOPOROSIS, ARTHRITIS, TYPE 2 DIABETES, DEMENTIA, ALZHEIMERS DISEASE AND CANCER” (priority 2002, published 2006).
